# According to paper PMC6792352, “Limited Chemical Structural Diversity Found to Modulate Thyroid Hormone Receptor in the Tox21 Chemical Library” (Environmental Health Perspectives, 2019):
# Counter-ions that a name gives are not always drawn.
# Experiment: in vitro
# Details: rat, gh3-tre-luc cells
SMILES,CC50 at 24 h (AC50 (uM) modified / 1000) [µM],also measured
CCc1ccc2c(c1)N(CC(C)CN(C)C)c1ccccc1S2 (stereo not drawn) [Etymemazine hydrochloride],9.18,–
"CCC(CC)Nc1ccc(C)c(C)c1 [N-(1-Ethylpropyl)-3,4-xylidine]",> 90,–
CCN[C@@H](C)Cc1ccccc1 [(S)-(+)-N-Ethylamphetamine hydrochloride],> 100,–
CC(=O)Nc1ccc(OC(=O)c2ccccc2OC(C)=O)cc1 [Benorylate],> 50,–
Cc1c(N(C)C)c(=O)n(-c2ccccc2)n1C [4-Dimethylaminoantipyrine],> 50,–
[O-][S+](c1cc(Cl)cc(Cl)c1O)c1cc(Cl)cc(Cl)c1O [Bithionoloxide],46,–
CC(C#N)CCC#N (stereo not drawn) [2-Methylpentanedinitrile],–,"CC50 at 24 h (AC50 (uM) modified / 1000, Tox21_110001=Tox21_201788, viability, 1 nM T3 present, 24 h): > 90 µM"
C[C@]12CCC(=O)C=C1CC[C@@H]1[C@@H]2[C@@H](O)C[C@@]2(C)[C@H]1CC[C@]2(O)C(=O)COP(=O)(O)O [Hydrocortisone sodium phosphate],> 50,–
"CCc1cc(Cc2cc(CC)c(N)c(CC)c2)cc(CC)c1N [4,4'-Methylenebis(2,6-diethylaniline)]",61.9,–
C1CCc2nnnn2CC1 [Pentylenetetrazol],> 50,–
O=[N+]([O-])c1ccc(Nc2ccc(Nc3ccccc3)c(S(=O)(=O)O)c2)c([N+](=O)[O-])c1 [C.I. Acid Orange 3],–,"CC50 at 24 h (AC50 (uM) modified / 1000, Tox21_110001=Tox21_301886, viability, 1 nM T3 present, 24 h): 76.1 µM"
CCCC(C)(COC(N)=O)COC(N)=O [Meprobamate],–,"CC50 at 24 h (AC50 (uM) modified / 1000, Tox21_110001=Tox21_111063, viability, 1 nM T3 present, 24 h): > 50 µM; CC50 at 24 h (AC50 (uM) modified / 1000, Tox21_110001=Tox21_200332, viability, 1 nM T3 present, 24 h): > 90 µM"
CCCCCCCCCCCCCC[N+](C)(C)Cc1ccccc1 [Benzyldimethyltetradecylammonium chloride dihydrate],10.5,–
CCCCc1nc2cccnc2n1Cc1ccc(-c2ccccc2-c2nnn[nH]2)cc1 [FR130739],55.3,–
Cc1ccc(O)cc1 [p-Cresol],> 100,–
COc1cc(C=O)ccc1O [4-Hydroxy-3-methoxybenzaldehyde],> 50,–
CC(C)C[C@@H]1NC(=O)[C@H](CCCN)NC(=O)[C@H](C(C)C)NC(=O)[C@H](Cc2ccc(O)cc2)N[C@@H](CCC(=O)O)C(=O)N[C@@H](CC(N)=O)C(=O)[C@@H](Cc2ccccc2)NC(=O)[C@H](Cc2ccccc2)NC(=O)[C@@H]2CCCN2C(=O)[C@@H](Cc2ccccc2)NC1=O [Tyrothricin],1.25,–
N=C(N/N=C/c1ccc(Cl)cc1)N/N=C/c1ccc(Cl)cc1 [Robenidine],46.1,–
NC[C@@H]1O[C@H](O[C@H]2[C@@H](O)[C@H](O[C@@H]3[C@@H](O)[C@H](N)C[C@H](N)[C@H]3O[C@H]3O[C@H](CO)[C@@H](O)[C@H](O)[C@H]3N)O[C@@H]2CO)[C@H](N)[C@@H](O)[C@@H]1O [Paromomycin sulfate],> 50,–
CC(C)NCC1CCc2cc(CO)c([N+](=O)[O-])cc2N1 (stereo not drawn) [Oxamniquine],> 20,–
COc1cc(-c2nc(NC(=O)c3cc4cc(C)cc(C)c4n3CC(=O)O)sc2CCC2CCCCC2)c(OC)cc1Cl [SR146131 trifluoroacetate (1:1)],12.1,–
O=C1OC(=O)c2c(Cl)c(Cl)c(Cl)c(Cl)c21 [Tetrachlorophthalic anhydride],> 90,–
O=C(CBr)c1ccc(O)cc1 [2-Bromo-4-hydroxyacetophenone],> 90,–
O=C1NC(=O)[C@@]2(CCOc3ccc(F)cc32)N1 [Sorbinil],> 50,–

SMILES,CC50 at 24 h (AC50 (uM) modified / 1000) [µM],also measured
COC(=O)C1=CCCN(C)C1 [Arecoline],–,"CC50 at 24 h (AC50 (uM) modified / 1000, Tox21_110001=Tox21_110079, viability, 1 nM T3 present, 24 h): > 50 µM"
COc1nc(C)nc(NC(=O)NS(=O)(=O)c2ccccc2OCCCl)n1 [Triasulfuron],> 90,–
O=C1NCC2(CCN(CCc3ccccc3)CC2)O1 [Fenspiride hydrochloride],> 50,–
"NC(=O)C(Cl)Cl [2,2-Dichloroacetamide]",–,"CC50 at 24 h (AC50 (uM) modified / 1000, Tox21_110001=Tox21_200050, viability, 1 nM T3 present, 24 h): > 90 µM"
CC[C@@H](C(=O)O)[C@@H]1O[C@@H]([C@@H](C)[C@H](O)[C@H](C)C(=O)[C@H](CC)[C@H]2O[C@]3(C=C[C@@H](O)[C@]4(CC[C@@](C)([C@H]5CC[C@](O)(CC)[C@H](C)O5)O4)O3)[C@H](C)C[C@@H]2C)[C@@H](C)C[C@@H]1C [Narasin],0.153,–
CCCCCCCCCCCCCCCCO [1-Hexadecanol],> 90,–
ClC(Cl)(Cl)C(Cl)(Cl)Cl [Hexachloroethane],–,"CC50 at 24 h (AC50 (uM) modified / 1000, Tox21_110001=Tox21_200724, viability, 1 nM T3 present, 24 h): > 90 µM"
CC(C)OB(OC(C)C)OC(C)C [Triisopropyl orthoborate],> 90,–
NCCc1cc[nH]n1 [Betazole hydrochloride],> 20,–
CC1CC(=O)NN=C1c1ccc(NCC(C)(C)NCC(O)COc2cc(Cl)ccc2C#N)cc1 (stereo not drawn) [Oberadilol],> 50,–
"Clc1cc(Cl)c(Cl)cc1Cl [1,2,4,5-Tetrachlorobenzene]",> 90,–
"O=C(O)CCSSCCC(=O)O [3,3'-Dithiodipropionic acid]",> 90,–
NC(=O)NO [Hydroxyurea],> 90,–
"COc1cc(OC)cc(OC)c1 [1,3,5-Trimethoxybenzene]",> 50,–
CO[Si](C)(OC)OC [Trimethoxymethylsilane],> 90,–
C=CCc1cc(OC)c2c(c1)OCO2 [Myristicin],–,"CC50 at 24 h (AC50 (uM) modified / 1000, Tox21_110001=Tox21_200172, viability, 1 nM T3 present, 24 h): > 100 µM"
CCCC(=O)O [Butanoic acid],> 100,–
CC(C)Cc1nccs1 [2-(2-Methylpropyl)thiazole],> 90,–
COc1cc2c(cc1OC)[C@@H](c1ccccc1)CN(C)CC2 [Trepipam maleate],> 50,–
Brc1cc2ccccc2c2ccccc12 [9-Bromophenanthrene],> 90,–
CS(=O)(=O)c1cc(C(F)(F)F)ccc1C(=O)c1cnoc1C1CC1 [Isoxaflutole],> 90,–
CCc1occc(=O)c1O [2-Ethyl-3-hydroxy-4H-pyran-4-one],> 90,–
CC(C)NCC(O)c1ccc2ccccc2c1 (stereo not drawn) [Pronethalol],> 50,–
CC(C)Cn1cnc2c(N)nc3ccccc3c21 [Imiquimod],> 50,–

SMILES,CC50 at 24 h (AC50 (uM) modified / 1000) [µM],also measured
CCCCOC(=O)CC#N [Butyl cyanoacetate],> 100,–
O=C(Cl)c1cccc([N+](=O)[O-])c1 [3-Nitrobenzoyl chloride],> 90,–
O=c1cc(-c2ccccc2)oc2cc(O)cc(O)c12 [Chrysin],62.4,–
CCCC(=O)CC [3-Hexanone],> 90,–
COc1nc(C)nc(N)n1 [2-Methyl-4-amino-6-methoxy-s-triazine],> 90,–
"CC(=O)C=CC1=C(C)CCCC1(C)C [4-(2,6,6-Trimethyl-cyclohex-1-enyl)-but-3-en-2-one]",> 90,–
CCCCCCC(C)O (stereo not drawn) [2-Octanol],> 90,–
CC(CO)OC(C)CO (stereo not drawn) [Dipropylene glycol],> 90,–
CC/C(=C(/CC)c1ccc(OP(=O)(O)O)cc1)c1ccc(OP(=O)(O)O)cc1 [Diethylstilbestrol diphosphate],> 50,–
C=CCN(CC=C)C(=O)C(Cl)Cl [Dichlormid],> 90,–
C=Cc1ccccc1C=C [Divinylbenzene],> 400,–
"Cc1ccc([N+](=O)[O-])c(C)c1 [1,3-Dimethyl-4-nitrobenzene]",> 90,–
N#Cc1ccc(Cl)cc1 [4-Chlorobenzonitrile],–,"CC50 at 24 h (AC50 (uM) modified / 1000, Tox21_110001=Tox21_301477, viability, 1 nM T3 present, 24 h): > 90 µM"
Cc1ccc2ncccc2c1 [6-Methylquinoline],> 90,–
CN1CC[C@]23c4c5ccc(O)c4O[C@H]2[C@@H](O)CC[C@H]3[C@H]1C5 [Dihydromorphine],–,"CC50 at 24 h (AC50 (uM) modified / 1000, Tox21_110001=Tox21_112886, viability, 1 nM T3 present, 24 h): > 90 µM"
CO/N=C(/C1=NOCCO1)c1ccccc1Oc1ncnc(Oc2ccccc2Cl)c1F [Fluoxastrobin],32.7,–
O=C(C[C@H]1NCCC[C@@H]1O)Cn1cnc2cc(Br)c(Cl)cc2c1=O (racemic) [Halofuginone hydrochloride],> 50,–
CCCCC(CC)COC(=O)c1ccc(C(=O)OCC(CC)CCCC)cc1 (stereo not drawn) [Bis(2-ethylhexyl) terephthalate],> 90,–
CCC(C)OC(=O)N1CCCCC1CCO (stereo not drawn) [Icaridin],> 90,–
"CC(C)(C)C(=O)Cl [2,2-Dimethylpropanoyl chloride]",> 90,–
C=CC(=O)OCCCCCCCC(C)C [Isodecyl acrylate],> 90,–
CCCCC(CC)CN1CN(CC(CC)CCCC)CC(C)(N)C1 (stereo not drawn) [Hexetidine],> 20,–
CCCCCCCCCOC(C)=O [Nonyl acetate],> 90,–
